The source of these data is patent publication US20160374981A1, “ANORECTIC AGENT” (Nippon Suisan Kaisha, Ltd., priority 2012, published 2016).

Common to all, as to type: in vivo
Test [1] deals with CCK mRNA. The test is described as follows: Small intestine CCK mRNA expression level in SD rats after single oral dose (real-time PCR). The note with it: male SD rats; an hour after single oral dose 500 mg/kg; versus control group (FIG. 14). The procedure:
(§1) Using a 1.5% (by weight) aqueous solution of a fatty acid ester of glycerol (RYOTO® POLYGLYESTER; product of Mitsubishi-Kagaku Foods Corporation) as a solvent, a free fatty acid form of palmitoleic acid (C16:1) and a free fatty acid form of oleic acid (C18:1), both being products of Sigma, were added to the solvent and uniformly emulsified by sonication in an ice bath to thereby prepare dosing samples.
(§2) Male Sprague-Dawley rats (hereinafter referred to as SD rats) were used in the test. Nine-week-old SD rats (Japan SLC, Inc.) were purchased and preliminarily reared for a week in individual cages. […]
(§3) After the preliminary rearing, the 10-week-old SD rats were divided into the following three groups (10 animals per group) considering their body weight: a control group administered with only the solvent (hereinafter referred to as “control group”); a group administered with palmitoleic acid (C16:1) (hereinafter “C16:1 administered group”); and a group administered with oleic acid (C18:1) (hereinafter “C18:1 administered group”); these groups of rats were subjected to the main test. […] With the level of gene expression in the control group taken as unity, the relative expression levels of respective genes in the C16:1 administered group or 18:1 administered group were calculated. […]
In general terms: Quantitative PCR measures a nucleic acid by following its amplification.

Test [2] is described as follows: Single-dose oral administration of free fatty acids to SD rats: food intake. The note with it: male SD rats. On the procedure:
Using a 1.5% (by weight) aqueous solution of a fatty acid ester of glycerol (RYOTO® POLYGLYESTER; product of Mitsubishi-Kagaku Foods Corporation) as a solvent, a free fatty acid form of palmitoleic acid (C16:1), a free fatty acid form of palmitic acid (C16:0), a free fatty acid form of oleic acid (C18:1), a free fatty acid form of lauric acid (C12:0), a free fatty acid form of decenoic acid (C10:1), and a free fatty acid form of linoleic acid (C18:2), all being products of Sigma, were added to the solvent and uniformly emulsified by sonication in an ice bath to thereby prepare dosing samples.
Male Sprague-Dawley rats (hereinafter referred to as SD rats) were used in the experiment. Nine-week-old SD rats (Japan SLC, Inc.) were purchased and preliminarily reared for a week in individual cages. During the preliminary rearing period, the animals were allowed free access to the solid feed Labo MR Stock (Nosan Corporation) and distilled water through water bottles.
After the preliminary rearing, the 10-week-old SD rats were divided into the following seven groups (10 animals per group) considering their body weight: a control group administered with only the solvent (hereinafter referred to as “control group”); a group administered with palmitoleic acid (C16:1) (hereinafter “C16:1 administered group”); a group administered with palmitic acid (C16:0) (hereinafter “C16:0 administered group”); a group administered with oleic acid (C18:1) (hereinafter “C18:1 administered group”); a group administered with lauric acid (C12:0) (hereinafter “C12:0 administered group”); a group administered with decenoic acid (C10:1) (hereinafter “C10:1 administered group”); and a group administered with linoleic acid (C18:2) (hereinafter “C18:2 administered groups”); these groups of rats were subjected to the main test. In the main test, the solvent or each fatty acid under test was orally administered in a single dose through a gastric tube on the very day of the experiment. To the control group of SD rats, the solvent was orally administered at a dose of 10 mL/kg per animal. The test subjects, C16:1, C16:0, C18:1, C12:0, C10:1 and C18:2, each taken in an amount of 150 mg or 500 mg, were added to 10 mL of the solvent and emulsified; the emulsion was orally administered to the SD rats in a dose of 10 mL/kg per animal and a measurement was conducted both 30 minutes and an hour later. The amount of food intake (the amount of food supplied immediately after the dosing of sample minus the amount of food at a specified time after the dosing of sample) was measured both 30 minutes and an hour after oral administration of the test sample.

Test [3] deals with cholecystokinin (CCK). The test is described as follows: Blood cholecystokinin (CCK) level in SD rats after single oral dose (ELISA). The note with it: male SD rats, versus control group (FIG. 13). On the procedure:
as §1, §2, §3
On the technique in general: In an ELISA, binding on a coated surface is turned into a signal by an enzyme label.

Test [4] can be described thus: Long-term oral administration of free fatty acids to KKAy mice: food intake and body weight. The note with it: male KKAy mice. The procedure:
Using a 1.5% (by weight) aqueous solution of a fatty acid ester of glycerol (RYOTO®POLYGLYESTER; product of Mitsubishi-Kagaku Foods Corporation) as a solvent, a free fatty acid form of palmitoleic acid (C16:1), a free fatty acid form of palmitic acid (C16:0), a free fatty acid form of gadoleic acid (C20:1), and a free fatty acid form of erucic acid (C22:1), all being products of Sigma with purities of 99% and more, were added to the solvent and uniformly emulsified by sonication in an ice bath to thereby prepare dosing samples.
Male, spontaneously diabetic model mice KKAy/Ta (hereinafter referred to as KKAy mice) were used in the test. Five-week-old KKAy mice (CLEA Japan, Inc.) were purchased and preliminarily reared for a week in individual cages. During the preliminary rearing period, the animals were allowed free access to the solid feed Labo MR Stock (Nosan Corporation) and distilled water through water bottles.
After the preliminary rearing, the 6-week-old KKAy mice were divided into the following five groups (10 animals per group) considering their body weight: a control group administered with only the solvent (hereinafter referred to as “control group”); a group administered with palmitoleic acid (C16:1) (hereinafter “C16:1 administered group”); a group administered with palmitic acid (C16:0) (hereinafter “C16:0 administered group”); a group administered with gadoleic acid (C20:1) (hereinafter “C20:1 administered group”); and a group administered with erucic acid (C22:1) (hereinafter “C22:1 administered group”); these groups of mice were subjected to the main test. In the main test, the mice of each group were reared for 4 weeks under the environment of light (12 hr) and dark (12 hr) cycles as they were allowed free access to the powdered feed Labo MR Stock (Nosan Corporation) and distilled water through water bottles. In the process, the solvent or each fatty acid under test was orally administered through a gastric tube at 10 a.m. every day. […]
During the 4-week rearing period, the amount of food supplied was measured at days 1, 5, 9, 12, 16, 19, 23 and 26 after dosing and the amount of leftover was measured on the next day, with the respective measurements being conducted for each feeder. The amount of daily food intake was calculated from the difference between the values for two consecutive measurements. The “average food intake” is the average of the food intakes as measured on the respective days of measurement. […] The percent body weight gain was calculated by the formula [(final body weight−initial body weight)/initial body weight]×100. The “final body weight” is the body weight as measured after the end of the 4-week rearing period whereas “initial body weight” is the body weight as measured at the start of the test.

Setting [5] is: an hour after single oral dose 150 or 500 mg/kg, comparison with other fatty acids, versus control group (FIG. 11).

Regarding `CCCCCC/C=C\CCCCCCCC(=O)O` [C16:1, palmitoleic acid], the “small intestine CCK mRNA expression level” value in test [1] is listed as “increased significantly”. Moreover, the food intake result in test [2] (30 minutes after single oral dose 500 mg/kg, compared with control group and C16:0 administered group (FIGS. 5 and 6)) was “significant drop in food intake”; in test [2] (30 minutes after single oral dose 150 or 500 mg/kg, compared with control group and C18:1 administered group (FIGS. 8-9)) it was “significant drops in food intake”; in test [2] (an hour after single oral dose 500 mg/kg, compared with control group and C16:0 administered group (FIGS. 5 and 6)), “significant drop in food intake”; in test [2] (an hour after single oral dose 150 or 500 mg/kg, compared with control group and C18:1 administered group (FIGS. 8, 10)), “significant drops in food intake”; in test [2] (setting [5]) it was “significant drops in food intake”; in test [4] (300 mg in 10 mL solvent, 10 mL/kg oral every day, 4 weeks, compared with control group (FIGS. 1 and 2)), “significant drops in the food intake”. Also, the “blood CCK level” value in test [3] (an hour after single oral dose 500 mg/kg) is recorded as “increased significantly”. Further, the “percent body weight gain” value in test [4] (4 weeks after administration, compared with control group (FIG. 4)) is given as “significant drop in the percent body weight gain”. In addition, in test [4] (daily oral administration, 4 weeks, FIG. 2, P<0.05), the “daily averages for the amount of food intake” value is “significant drop in the amount of food intake”. In addition, the body weight entry in test [4] (daily oral administration, second to fourth week of dosing, compared with control group (FIG. 3)) was “significant drop in body weight”.
On to “decenoic acid [C10:1, reference compound]”, for which the food intake entry in test [2] (setting [5]) is recorded as “no significant drops”.
Turning to `CCCCCCCCCCCCCCCC(=O)O` [C16:0, palmitic acid, reference compound], the “food intake (test for dose-dependency)” value in test [2] (30 minutes after single oral dose 50, 150 or 500 mg/kg, compared with control group and C16:0 administered group (FIG. 7)) is recorded as “decreased significantly in a dose-dependent manner”.
`CCCCC/C=C\C/C=C\CCCCCCCC(=O)O` [C18:2, linoleic acid, reference compound]: the food intake result in test [2] (setting [5]) is listed as “no significant drops”.
Still for that read-out and setting: the value for `CCCCCCCCCCCC(=O)O` [C12:0, lauric acid, reference compound] was “no significant drops”.
As to `CCCCCCCC/C=C\CCCCCCCC(=O)O` [oleic acid, reference compound], the “blood CCK level” value in test [3] (an hour after single oral dose 150 or 500 mg/kg) was “no significant elevation”.
